These results are taken from patent EP3444615A1, “METHODS AND COMPOSITIONS FOR DIAGNOSTIC EVALUATION AND THERAPEUTIC CORRECTION OF THE NO-HAEM SIGNALLING PATHWAY(S) IN ANIMALS AND HUMANS” (Freiberg Instruments GmbH, priority 2017, dated 2019).

In experiment [1] the test system is human platelet-rich plasma (PRP). Kind of experiment: U46619-induced platelet aggregation in platelet-rich plasma (aggregometer). Format: cell-based. As to the method:
Human venous blood was collected into a plastic polypropylene syringe containing sodium citrate. […] Platelet-rich-plasma (PRP) was prepared by centrifugation of the blood at 180g for 10 minutes at room temperature. The cloudy supernatant containing platelets was carefully removed with a pipette and transferred into a clean polypropylene tube and capped. Platelets were used for the experiments within 3 hr after blood collection. Platelet function studies were performed using a Dual Channel Aggregometer (Chronolog, Havertown). The PRP was adjusted to a platelet count of 200-300x 10^6/ml. Platelet aggregation was induced by the addition of a synthetic thromboxane A2 receptor agonist, U46619 (Cayman Chemical, Ann Arbor). PRP was placed in the aggregometer cuvette and continuously stirred at the rate of 1000 rpm. Platelet aggregation was determined by measuring the change in the optical density after addition of 1µM U46619. […]

The subject of a further experiment is mouse femoral artery. Kind of experiment: isometric tension study, wire myograph, pre-contracted artery rings. The note with it: Fig. 7. The procedure:
For the pilot experiment a male Swiss mouse (35 g) was sacrificed under ether anaesthesia. Femoral artery was isolated and cleaned from the adhering fat and connective tissue. Artery rings (2 mm) with endothelium were mounted in the organ chambers filled with Krebs solution continuously bubbled with 95% 02/ 5% CO2 at 37°C. The composition of the solution was as following: 119 mM NaCl, 4.7 mM KCI, 14.9 mM NaHCO3, 1.2 mM MgSO4.7H2O, 2.5 mM CaCl2, 1.18 mM KH2PO4, and 5.5 mM glucose; pH 7.4. Vascular reactivity was measured by the monitoring the changes in isometric tension using a wire myograph (Danish Myo Technology, Arhus, Denmark). After pre-contraction of arterial rings with 1µM 5-HT (serotonin; Sigma-Aldrich), the cumulative concentrations of NO-ferrohaem were added. In the end of experiment, an inhibitor of the soluble guanylate cyclase (ODQ; 1µM) was added.

The next experiment concerns anesthetized Wistar rat. In words: blood pressure study, subcutaneous injection. Format: in vivo. The conditions noted are these: after injection of sGC inhibitor methylene blue; Fig. 8. As to the method: For the pilot experiment, a male Wistar rat weighing 350g from Janvier Labs (Le Genest-Saint-Isle, France) was used. Rat was anaesthetised with isoflurane 1-2% (Baxter S.A.S, Maurepas, France) and analgesia was ensured by sufentanil (Mylan, Pittsburgh PA, USA) (0.1 µg/kg of body weight) administered subcutaneously. Animal was tracheotomised and lungs ventilated throughout the experiment. The ventilator (Harvard Rodent Ventilator 683, Harvard Instruments, South Natick, MA, USA) was set to maintain a PaCO2 of 40 mmHg and oxygen was added to maintain a PaO2 of 100 mmHg. The left femoral artery was used to measure mean arterial pressure (MAP) and heart rate (HR). The rectal temperature was continuously monitored. The NO-ferrohaem was injected at dose 2µmol/kg (s.c.) before and after the injection of methylene blue (1 µmol/kg; s.c.). In the end of experiment rat was euthanized using the lethal dose of Pentothal (100 mg/kg; i.v.).

For a further experiment, the system named is anesthetized rats. In words: blood pressure after intravenous bolus injection. Format: in vivo. The conditions noted are these: 10 nmol/kg.
In experiment [2] the test system is isolated rat mesenteric arteries. Kind of experiment: vasodilation in isolated mesenteric arteries.
The target of a further experiment is T1, isolated sGC (Bos taurus, UniProt P16068).
T1 construct: host or cells: bovine lung (from a cited title)
T1 sequence (P16068 1-619): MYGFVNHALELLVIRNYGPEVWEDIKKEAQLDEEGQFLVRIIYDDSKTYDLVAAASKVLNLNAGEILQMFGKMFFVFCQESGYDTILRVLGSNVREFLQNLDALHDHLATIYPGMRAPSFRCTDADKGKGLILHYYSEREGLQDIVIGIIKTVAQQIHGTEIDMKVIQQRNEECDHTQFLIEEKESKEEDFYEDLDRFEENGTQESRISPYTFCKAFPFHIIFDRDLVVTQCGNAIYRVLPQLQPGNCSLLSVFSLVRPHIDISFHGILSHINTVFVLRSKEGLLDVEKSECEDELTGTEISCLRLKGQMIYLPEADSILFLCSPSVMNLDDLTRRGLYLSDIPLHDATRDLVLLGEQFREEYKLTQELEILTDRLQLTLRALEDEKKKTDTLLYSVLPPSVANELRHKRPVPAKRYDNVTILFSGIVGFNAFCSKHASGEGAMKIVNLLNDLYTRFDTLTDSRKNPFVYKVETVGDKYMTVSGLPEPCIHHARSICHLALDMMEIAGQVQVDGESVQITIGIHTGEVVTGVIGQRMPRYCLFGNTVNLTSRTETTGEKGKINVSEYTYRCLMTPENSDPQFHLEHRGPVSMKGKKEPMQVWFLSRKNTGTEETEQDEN
T1 sequence (P19687 1-691 partner): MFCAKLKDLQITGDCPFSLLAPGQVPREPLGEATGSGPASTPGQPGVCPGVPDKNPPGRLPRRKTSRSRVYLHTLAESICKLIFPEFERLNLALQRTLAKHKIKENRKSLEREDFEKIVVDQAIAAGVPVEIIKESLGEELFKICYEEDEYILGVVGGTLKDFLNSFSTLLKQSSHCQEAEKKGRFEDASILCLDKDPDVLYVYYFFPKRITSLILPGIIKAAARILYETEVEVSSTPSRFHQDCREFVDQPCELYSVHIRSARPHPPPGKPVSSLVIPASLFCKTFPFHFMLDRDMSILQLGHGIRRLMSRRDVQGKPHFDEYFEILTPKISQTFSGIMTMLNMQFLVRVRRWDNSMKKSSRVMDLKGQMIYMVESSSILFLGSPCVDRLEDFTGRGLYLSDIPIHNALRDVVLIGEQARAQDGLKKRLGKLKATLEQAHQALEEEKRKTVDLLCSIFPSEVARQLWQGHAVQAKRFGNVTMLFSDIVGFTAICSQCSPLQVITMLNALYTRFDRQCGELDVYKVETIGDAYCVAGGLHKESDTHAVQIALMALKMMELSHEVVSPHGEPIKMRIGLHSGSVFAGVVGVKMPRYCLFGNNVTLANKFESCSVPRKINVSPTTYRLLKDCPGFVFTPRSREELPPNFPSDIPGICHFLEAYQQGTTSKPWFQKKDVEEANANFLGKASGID
The note with it: bare ferrohaem, in contrast to NO-ferrohaem; cited from earlier work.

`C=Cc1c(C)c2[n]3c1C=C1N=C(C=C4N=C(C=c5c(C)c(C=C)c([n]5[Fe]3[N]=O)=C2)C(C)=C4CCC(=O)O)C(CCC(=O)O)=C1C` [NO-ferrohaem, nitrosylated ferrous protoporphyrin IX]: the U46619-induced platelet aggregation entry in experiment [1] (1 nM, 10nM or 100nM added 30 seconds before 1µM U46619, Fig. 6) is recorded as “concentration-dependently prevented the aggregation”. In addition, in experiment [1] (at low nM concentrations, human platelet-rich plasma), the “inhibition of thromboxane-induced platelet aggregation” value is on record as “efficiently inhibits”. Further, the “relaxation of pre-contracted arteries” value with mouse femoral artery (5-HT (1µM)-pre-contracted, 100nM-100µM concentration range) is “concentration-dependent relaxation”. Moreover, the “effect of ODQ on the NO-ferrohaem-induced relaxation” value with mouse femoral artery (plus sGC inhibitor ODQ (1µM)) is given as “completely reversed”. For the same compound, in the experiment on anesthetized Wistar rat, the “effect of methylene blue on hypotensive activity” value is listed as “prevented this NO-ferrohaem activity”. Moreover, the blood pressure effect entry with anesthetized rats is reported as “sGC-inhibitor-sensitive hypotension”. Besides, the vasodilating activity entry in experiment [2] is given as “direct long-lasting vasodilating activity”.

In the case of `C=Cc1c(C)c2[n]3c1C=C1N=C(C=C4N=C(C=c5c(C)c(C=C)c([n]5[Fe]3)=C2)C(C)=C4CCC(=O)O)C(CCC(=O)O)=C1C` [ferrohaem], the “effect on basal activity of isolated sGC” value on isolated sGC is “inhibits the basal activity of isolated sGC”.
